The test system of the assay is B6C3F1 mice, ip Sarcoma M5076, median survival T/C. Nature of the assay: NCI In Vivo Anticancer Drug Screen. Data for tumor model Sarcoma M5076 (intraperitoneal) in B6C3F1 mice. The following applies: endpoint: median survival time, schedule: Q04DX004 (ip), higher = longer survival. An outline of the steps:
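The readout is a ratio of survival in drug-treated animals to survival in animals given vehicle alone, taken in mice bearing a transplanted tumour line.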

Where [1] appears, read: dose: 37.5 mg/kg/injection, vehicle: saline with Tween-80.
Setting [2] is: dose: 75.0 mg/kg/injection, vehicle: saline with Tween-80.
Setting [3] is: dose: 50.0 mg/kg/injection, vehicle: saline.
Setting [4] is: dose: 100.0 mg/kg/injection, vehicle: saline.
Where [5] appears, read: dose: 200.0 mg/kg/injection, vehicle: saline.
Setting [6] is: dose: 25.0 mg/kg/injection, vehicle: saline with Tween-80.
Setting [7] is: dose: 50.0 mg/kg/injection, vehicle: saline with Tween-80.
[8] abbreviates: dose: 100.0 mg/kg/injection, vehicle: saline with Tween-80.
The mark [9] stands for this setting: dose: 200.0 mg/kg/injection, vehicle: saline with Tween-80.

“And” between values parts separate entries of the source, which are not always exact repeats. Equal values may be shown once. Inconclusive results and toxic doses are left out.

With `Clc1cccc2[nH]c(-c3ccncc3)nc12`, the T/C runs as follows: under setting [1], 104 % of control; under setting [2], 111 % of control; (dose: 150.0 mg/kg/injection, vehicle: saline with Tween-80) 98 % of control; (dose: 300.0 mg/kg/injection, vehicle: saline with Tween-80) 105 % of control; (dose: 600.0 mg/kg/injection, vehicle: saline with Tween-80) 100 % of control.

For `CC1(C)Nc2cc3c(cc2-n2cccc21)oc1ccccc13`, the T/C (dose: 150.0 mg/kg/injection, vehicle: DMSO) was 101 % of control; the T/C (dose: 300.0 mg/kg/injection, vehicle: DMSO) is 100 % of control; the T/C (dose: 600.0 mg/kg/injection, vehicle: DMSO) is 101 % of control; the T/C (dose: 1200.0 mg/kg/injection, vehicle: DMSO) is 97 % of control.

As for `c1cn[nH]c1`, the T/C is, setting by setting: (dose: 25.0 mg/kg/injection, vehicle: saline) 93 % of control and 100 % of control; under setting [3], 97 % of control and 106 % of control and 107 % of control; under setting [4], 103 % of control and 104 % of control and 107 % of control; under setting [5], 105 % of control and 107 % of control and 110 % of control; (dose: 400.0 mg/kg/injection, vehicle: saline) 116 % of control.

For `CNC(=O)c1ccccc1CNC(=S)Nc1cccc(C)c1`, the T/C (dose: 37.5 mg/kg/injection, vehicle: Klucel (hydroxypropylcellulose) (HPC)) is 92 % of control; the T/C (dose: 75.0 mg/kg/injection, vehicle: Klucel (hydroxypropylcellulose) (HPC)) is 102 % of control; the T/C (dose: 150.0 mg/kg/injection, vehicle: Klucel (hydroxypropylcellulose) (HPC)) was 99 % of control; the T/C (dose: 300.0 mg/kg/injection, vehicle: Klucel (hydroxypropylcellulose) (HPC)) was 102 % of control.

As for `O=C1CNC(=O)N1CN1CCOCC1`, the T/C runs as follows: (dose: 50.0 mg/kg/injection, vehicle: Klucel (hydroxypropylcellulose) (HPC)) 110 % of control; (dose: 100.0 mg/kg/injection, vehicle: Klucel (hydroxypropylcellulose) (HPC)) 106 % of control; (dose: 200.0 mg/kg/injection, vehicle: Klucel (hydroxypropylcellulose) (HPC)) 108 % of control; (dose: 400.0 mg/kg/injection, vehicle: Klucel (hydroxypropylcellulose) (HPC)) 115 % of control; (dose: 800.0 mg/kg/injection, vehicle: Klucel (hydroxypropylcellulose) (HPC)) 106 % of control.

For the compound `COc1ccc(CNC(=O)C2C(=O)C(=O)N(Cc3ccc(OC)c(OC)c3)C2=O)cc1OC` (stereo not given), the T/C is 95 % of control (dose: 28.13 mg/kg/injection, vehicle: Klucel (hydroxypropylcellulose) (HPC)); 100 % of control (dose: 56.25 mg/kg/injection, vehicle: Klucel (hydroxypropylcellulose) (HPC)); 97 % of control (dose: 112.5 mg/kg/injection, vehicle: Klucel (hydroxypropylcellulose) (HPC)); 94 % of control (dose: 225.0 mg/kg/injection, vehicle: Klucel (hydroxypropylcellulose) (HPC)); 92 % of control (dose: 450.0 mg/kg/injection, vehicle: Klucel (hydroxypropylcellulose) (HPC)).

On to `CN1CCN(c2ccc3nc(-c4ccc5nc(-c6ccc(O)cc6)[nH]c5c4)[nH]c3c2)CC1`, for which the T/C runs as follows: (dose: 28.0 mg/kg/injection, vehicle: saline) 96 % of control; (dose: 56.0 mg/kg/injection, vehicle: saline) 92 % of control; (dose: 112.0 mg/kg/injection, vehicle: saline) 100 % of control; (dose: 225.0 mg/kg/injection, vehicle: saline) 86 % of control.

Turning to `N=C1C=CC2C(=Nc3ccccc3[N+]2=O)N1CCO` (stereo not given), the T/C was 91 % of control under setting [6], 103 % of control under setting [7], 104 % of control under setting [8] and 100 % of control under setting [9].

Consider `COc1ncc(Br)cc1C(=O)NCCc1ccc(S(=O)(=O)NC(=O)NC2CCCCC2)cc1`, for which the T/C was 100 % of control (dose: 12.5 mg/kg/injection, vehicle: saline with Tween-80); 102 % of control under setting [6]; 100 % of control under setting [7].

Take `CC(/C=C/C1OC(=O)C=CC1C)=C\C(C)C/C=C/C(C)=C/C(C)C(=O)C(C)C(O)C(C)C/C(C)=C/C(=O)O` (stereo not given): the T/C was 118 % of control (dose: 25.0 micrograms/kg/injection, vehicle: saline + alcohol); 150 % of control (dose: 50.0 micrograms/kg/injection, vehicle: saline + alcohol); 123 % of control (dose: 100.0 micrograms/kg/injection, vehicle: saline + alcohol); 177 % of control (dose: 400.0 micrograms/kg/injection, vehicle: saline + alcohol).

Turning to `NC(=O)c1[nH]cnc1O`, the T/C runs as follows: under setting [7], 102 % of control; under setting [8], 101 % of control and 105 % of control; under setting [9], 100 % of control and 105 % of control; (dose: 400.0 mg/kg/injection, vehicle: saline with Tween-80) 118 % of control.

Turning to `CC(=O)NCCSSCCCCS(=O)O`, the T/C reads like this: (dose: 37.5 mg/kg/injection, vehicle: saline) 99 % of control; (dose: 75.0 mg/kg/injection, vehicle: saline) 98 % of control; (dose: 150.0 mg/kg/injection, vehicle: saline) 100 % of control; (dose: 300.0 mg/kg/injection, vehicle: saline) 97 % of control; (dose: 600.0 mg/kg/injection, vehicle: saline) 104 % of control.

As to `CCc1n[nH]c(CC)c1CCCCCCOc1ccc(OC)cc1Cl`, the T/C by setting is: under setting [6], 106 % of control; under setting [1], 100 % of control; under setting [7], 107 % of control; under setting [2], 91 % of control; under setting [8], 97 % of control; under setting [9], 91 % of control.

For the compound `CC#CCOCC(O)CCl` (stereo not given), the T/C runs as follows: under setting [3], 99 % of control; (dose: 50.0 mg/kg/injection, vehicle: suspension in saline) 102 % of control; under setting [4], 98 % of control; (dose: 100.0 mg/kg/injection, vehicle: suspension in saline) 102 % of control; under setting [5], 103 % of control; (dose: 200.0 mg/kg/injection, vehicle: suspension in saline) 102 % of control. Further, the T/C (dose: 400.0 mg/kg/injection, vehicle: suspension in saline) is 100 % of control.

The values are drawn from PubChem BioAssay AID292 (DTP/NCI, 2004).
